Test system: HBV
Experiment: HepAD38 antiviral assay: reduction of viral product accumulation (virion DNA by qPCR, HBsAg/HBeAg by ELISA)
Type: cell-based
Settings: Hepatitis B virus, 120 h; HepAD38 cells; 50% reduction of viral product accumulation vs no drug controls; five days after compound addition; class symbols
Protocol: Methods: HepAD38 cells are maintained as previously reported (Ladner et al, Antimicrob. Agents Chemother. 1997, […], 1715). Briefly, cells are passaged upon attaining confluency in DMEM/F12 media in the presence of 10% FBS, Penn/Strep, 250 μg/mL G418, and 1 μg/ml tetracycline. Novel compounds are screened by first washing cells three times with PBS to remove tetracycline, and plating in 96 well plates at 35,000 cells/well. Compounds dissolved in DMSO are then diluted 1:200 into wells containing cells. Five days after compound addition, material is harvested for analysis. For an extended 8 day analysis, cells are plated and treated as described above, but media and compound are refreshed on d2 and d5 post initial treatment.
On harvest day, virion DNA is obtained by lysing with Sidestep Lysis and Stabilization Buffer and then quantified via quantitative real time PCR. Commercially available ELISA kits are used to quantitate the viral proteins HBsAg (Alpco) or HbeAg (US Biological) by following the manufacturer's recommended protocol after diluting samples to match the linear range of their respective assays. Irrespective of readout, compound concentrations that reduce viral product accumulation in the cell lysates or supernatants by 50% relative to no drug controls (EC50) are reported; EC50 ranges are as follows: A<0.1 μM; B 0.1-1 μM; C>1 μM.

| Compound | EC50 |
| --- | --- |
| CCS(=O)(=O)N[C@H]1CC2=C(c3cnn(C(F)F)c3)[C@H](c3ccc(F)cc3Cl)N=C(c3nccs3)N2C1 [Example 21] | < 100 nM |
| OC1CCCCC1CC1=C(c2cnn(C(F)F)c2)[C@H](c2ccc(F)cc2Cl)N=C(c2nccs2)N1 (stereo partly shown) [Example 46] | 100 to 1000 nM |
| OCC(F)(CO)CC1=C(c2cnn(C(F)F)c2)[C@H](c2ccc(F)cc2Cl)N=C(c2nccs2)N1 [Example 137] | 100 to 1000 nM |
| COC(=O)N[C@@]1(CO)CC2=C(c3ccn(C(F)F)n3)[C@H](c3ccc(F)cc3Cl)N=C(c3nccs3)N2C1 [Example 84] | < 100 nM |
| CC(C)S(=O)(=O)N[C@H]1CC2=C(c3cnn(C(F)F)c3)[C@H](c3ccc(F)cc3Cl)N=C(c3nccs3)N2C1 [Example 24] | < 100 nM |
| OC1CCCC1CC1=C(c2cnn(C(F)F)c2)[C@H](c2ccc(F)cc2Cl)N=C(c2nccs2)N1 (stereo partly shown) [Example 45] | 100 to 1000 nM |
| O=S(=O)(N[C@H]1CC2=C(c3cnn(C(F)F)c3)[C@H](c3ccc(F)cc3Cl)N=C(c3nccs3)N2C1)N1CCCC1 [Example 19] | < 100 nM |
| OC[C@]1(F)CC2=C(c3cnn(C(F)F)c3)[C@H](c3ccc(F)cc3Cl)N=C(c3nccs3)N2C1 [Example 148] | 100 to 1000 nM |
| OC[C@@]1(F)CC2=C(c3cnn(C(F)F)c3)[C@H](c3ccc(F)cc3Cl)N=C(c3nccs3)N2C1 [Example 149] | 100 to 1000 nM |
| CC(=O)OC[C@]1(CC2=C(c3ccn(C(F)F)n3)[C@H](c3ccc(F)cc3Cl)N=C(c3nccs3)N2)COC(=O)N1 [Example 97] | 100 to 1000 nM |
| COCC(F)(COC)CC1=C(c2cnn(C(F)F)c2)[C@H](c2ccc(F)cc2Cl)N=C(c2nccs2)N1 [Example 138] | 100 to 1000 nM |
| CS(=O)(=O)OC[C@]1(N=[N+]=[N-])CC2=C(c3cnn(C(F)F)c3)[C@H](c3ccc(F)cc3Cl)N=C(c3nccs3)N2C1 [Example 49] | 100 to 1000 nM |
| CC(C)n1cc(C2=C3C[C@H](NS(=O)(=O)C4CC4)CN3C(c3nccs3)=N[C@H]2c2ccc(F)cc2Cl)cn1 [Example 5] | < 100 nM |
| O=C1N[C@@](/C=N/Oc2ccccc2)(CC2=C(c3ccn(C(F)F)n3)[C@H](c3ccc(F)cc3Cl)N=C(c3nccs3)N2)CO1 [Example 102] | 100 to 1000 nM |
| O=S(=O)(N[C@]1(CO)CC2=C(c3ccn(C(F)F)n3)[C@H](c3ccc(F)cc3Cl)N=C(c3nccs3)N2C1)C1CC1 [Example 70] | 100 to 1000 nM |

Same assay, conditions: Hepatitis B virus, 120 h; HepAD38 cells; 50% reduction of viral product accumulation vs no drug controls; five days after compound addition; given as numeric bound

| Compound | EC50 |
| --- | --- |
| CCOC(=O)NC[C@@H]1CN(CC2=C(c3ccn(C(F)F)n3)[C@H](c3ccc(F)cc3Cl)N=C(c3nccs3)N2)C(=O)O1 [Example 129] | > 400 nM |
| [N-]=[N+]=NC[C@]1(N=[N+]=[N-])CC2=C(c3cnn(C(F)F)c3)[C@H](c3ccc(F)cc3Cl)N=C(c3nccs3)N2C1 [Example 52] | > 400 nM |
| O=C1N[C@](CC2=C(c3ccn(C(F)F)n3)[C@H](c3ccc(F)cc3Cl)N=C(c3nccs3)N2)(C(=O)O)CO1 [Example 103] | > 400 nM |
| COC(=O)CNC(=O)[C@@]1(NC(=O)OC)CC2=C(c3ccn(C(F)F)n3)[C@H](c3ccc(F)cc3Cl)N=C(c3nccs3)N2C1 [Example 74] | > 400 nM |
| CS(=O)(=O)N[C@]1(CO)CC2=C(c3ccn(C(F)F)n3)[C@H](c3ccc(F)cc3Cl)N=C(c3nccs3)N2C1 [Example 69] | > 400 nM |
| CCOC(=O)NC[C@H]1CCC(=O)N1CC1=C(c2ccn(C(F)F)n2)[C@H](c2ccc(F)cc2Cl)N=C(c2nccs2)N1 [Example 134] | > 400 nM |
| CC(=O)NCC1CC2=C(c3cnn(C(F)F)c3)[C@H](c3ccc(F)cc3Cl)N=C(c3nccs3)N2C1 (stereo partly shown) [Example 29] | > 100 nM |
| COC(=O)CC[C@]1(CC2=C(c3ccn(C(F)F)n3)[C@H](c3ccc(F)cc3Cl)N=C(c3nccs3)N2)COC(=O)N1 [Example 106] | > 400 nM |
| CS(=O)(=O)NCC1CC2=C(c3cnn(C(F)F)c3)[C@H](c3ccc(F)cc3Cl)N=C(c3nccs3)N2C1 (stereo partly shown) [Example 30] | > 100 nM |
| COC(=O)[C@](CO)(CC1=C(c2ccn(C(F)F)n2)[C@H](c2ccc(F)cc2Cl)N=C(c2nccs2)N1)NC(=O)OC(C)(C)C [Example 63] | > 400 nM |
| COC(=O)OC[C@]1(N=[N+]=[N-])CC2=C(c3cnn(C(F)F)c3)[C@H](c3ccc(F)cc3Cl)N=C(c3nccs3)N2C1 [Example 54] | > 400 nM |
| COC(=O)/C=C/[C@]1(CC2=C(c3ccn(C(F)F)n3)[C@H](c3ccc(F)cc3Cl)N=C(c3nccs3)N2)COC(=O)N1 [Example 105] | > 400 nM |
| OCC(F)(F)CC1=C(c2cnn(C(F)F)c2)[C@H](c2ccc(F)cc2Cl)N=C(c2nccs2)N1 [Example 147] | > 400 nM |
| O=C1N[C@](CO)(CC2=C(c3ccn(C(F)F)n3)[C@H](c3ccc(F)cc3Cl)N=C(c3nccs3)N2)CO1 [Example 90] | > 400 nM |
| C=CCOCC(F)(COC)CC1=C(c2cnn(C(F)F)c2)[C@H](c2ccc(F)cc2Cl)N=C(c2nccs2)N1 (stereo partly shown) [Example 136] | > 400 nM |
| C[C@H]1OC[C@](F)(CC2=C(c3cnn(C(F)F)c3)[C@H](c3ccc(F)cc3Cl)N=C(c3nccs3)N2)CO1 [Example 139] | > 400 nM |
| CC(C)(C)OC(=O)NC[C@@H]1CCC(=O)N1CC1=C(c2ccn(C(F)F)n2)[C@H](c2ccc(F)cc2Cl)N=C(c2nccs2)N1 [Example 131] | > 400 nM |
| CCC[C@H]1OC[C@](F)(CC2=C(c3cnn(C(F)F)c3)[C@H](c3ccc(F)cc3Cl)N=C(c3nccs3)N2)CO1 [Example 141] | > 400 nM |
| CC1(CNS(C)(=O)=O)CC2=C(c3cnn(C(F)F)c3)[C@H](c3ccc(F)cc3Cl)N=C(c3nccs3)N2C1 (stereo partly shown) [Example 38] | > 400 nM |
| COC(=O)NCC1CC2=C(c3cnn(C(F)F)c3)[C@H](c3ccc(F)cc3Cl)N=C(c3nccs3)N2C1 (stereo partly shown) [Example 31] | > 100 nM |
| CS(=O)(=O)OCC1CC2=C(c3cnn(C(F)F)c3)[C@H](c3ccc(F)cc3Cl)N=C(c3nccs3)N2C1 (stereo partly shown) [Example 28] | > 100 nM |
| COC(=O)[C@@]1(O)CC2=C(c3ccn(C(F)F)n3)[C@H](c3ccc(F)cc3Cl)N=C(c3nccs3)N2C1 [Example 120] | > 400 nM |

| Compound | EC50 |
| --- | --- |
| C=CCOC[C@]1(CC2=C(c3ccn(C(F)F)n3)[C@H](c3ccc(F)cc3Cl)N=C(c3nccs3)N2)COC(=O)N1 [Example 100] | > 400 nM |
| COC(=O)NC[C@@H]1CCC(=O)N1CC1=C(c2ccn(C(F)F)n2)[C@H](c2ccc(F)cc2Cl)N=C(c2nccs2)N1 [Example 133] | > 400 nM |
| COC(=O)C(O)(CO)CC1=C(c2ccn(C(F)F)n2)[C@H](c2ccc(F)cc2Cl)N=C(c2nccs2)N1 (stereo partly shown) [Example 112] | > 400 nM |
| [N-]=[N+]=NCC1(F)CC2=C(c3cnn(C(F)F)c3)[C@H](c3ccc(F)cc3Cl)N=C(c3nccs3)N2C1 (stereo partly shown) [Example 41] | > 400 nM |
| COC(=O)N[C@@]1(C(=O)OC)CC2=C(c3ccn(C(F)F)n3)[C@H](c3ccc(F)cc3Cl)N=C(c3nccs3)N2C1 [Example 82] | > 400 nM |
| CC(C)(C)OC(=O)NC[C@@H]1CN(CC2=C(c3ccn(C(F)F)n3)[C@H](c3ccc(F)cc3Cl)N=C(c3nccs3)N2)C(=O)O1 [Example 127] | > 400 nM |
| [N-]=[N+]=N[C@@]1(CO)CC2=C(c3cnn(C(F)F)c3)[C@H](c3ccc(F)cc3Cl)N=C(c3nccs3)N2C1 [Example 48] | > 400 nM |
| OCC1CC2=C(c3cnn(C(F)F)c3)[C@H](c3ccc(F)cc3Cl)N=C(c3nccs3)N2C1 (stereo partly shown) [Example 27] | > 100 nM |
| Fc1ccc([C@@H]2N=C(c3nccs3)NC(C[C@]3(F)CO[C@@H](c4ccccc4)OC3)=C2c2cnn(C(F)F)c2)c(Cl)c1 [Example 143] | > 400 nM |
| CS(=O)(=O)NC(=O)N[C@H]1CC2=C(c3cnn(C(F)F)c3)[C@H](c3ccc(F)cc3Cl)N=C(c3nccs3)N2C1 [Example 15] | > 100 nM |
| COC(=O)N[C@]1(C(C)O)CC2=C(c3ccn(C(F)F)n3)[C@H](c3ccc(F)cc3Cl)N=C(c3nccs3)N2C1 (stereo partly shown) [Example 119] | > 400 nM |
| COC(=O)[C@@]1(CC2=C(c3ccn(C(F)F)n3)[C@H](c3ccc(F)cc3Cl)N=C(c3nccs3)N2)COC(=O)N1 [Example 89] | > 400 nM |
| CN(C)C(=O)NCC1(C)CC2=C(c3cnn(C(F)F)c3)[C@H](c3ccc(F)cc3Cl)N=C(c3nccs3)N2C1 (stereo partly shown) [Example 42] | > 400 nM |
| COC(=O)NC[C@@]1(O)CC2=C(c3ccn(C(F)F)n3)[C@H](c3ccc(F)cc3Cl)N=C(c3nccs3)N2C1 [Example 117] | > 400 nM |
| COC(=O)NC[C@H]1CN(CC2=C(c3ccn(C(F)F)n3)[C@H](c3ccc(F)cc3Cl)N=C(c3nccs3)N2)C(=O)O1 [Example 125] | > 400 nM |
| C=CC[C@@]1(COS(C)(=O)=O)CC2=C(c3cnn(C(F)F)c3)[C@H](c3ccc(F)cc3Cl)N=C(c3nccs3)N2C1 [Example 40] | > 400 nM |
| CS(=O)(=O)NC[C@]1(O)CC2=C(c3ccn(C(F)F)n3)[C@H](c3ccc(F)cc3Cl)N=C(c3nccs3)N2C1 [Example 118] | > 400 nM |
| COC(=O)[C@@](N)(CO)CC1=C(c2ccn(C(F)F)n2)[C@H](c2ccc(F)cc2Cl)N=C(c2nccs2)N1 [Example 92] | > 400 nM |
| CC(C)(C)OC(=O)NC[C@H]1CCC(=O)N1CC1=C(c2ccn(C(F)F)n2)[C@H](c2ccc(F)cc2Cl)N=C(c2nccs2)N1 [Example 130] | > 400 nM |
| COC[C@]1(CC2=C(c3ccn(C(F)F)n3)[C@H](c3ccc(F)cc3Cl)N=C(c3nccs3)N2)COC(=O)N1 [Example 99] | > 400 nM |
| C[C@@]1(CN=[N+]=[N-])CC2=C(c3cnn(C(F)F)c3)[C@H](c3ccc(F)cc3Cl)N=C(c3nccs3)N2C1 [Example 37] | > 400 nM |

— patent publication US10723733B2, “Hepatitis B antiviral agents” (Enanta Pharmaceuticals, Inc., priority 2017, dated 2020)
